Values after ≈ are worked out from the molar mass of the structure shown. Where two headings read alike, the source gives them in different places.
Assays:
[1] = test system: E. coli BW25113 ΔtolC gyrR isolate GyrB Thr508Met; assay: MIC against gyramide-resistant mutant; details: Escherichia coli, BW25113
Description: (§2) A microdilution method in 96-well plates was used and the MIC protocol established by the Clinical Laboratory Standards Institute was followed. From a growing subculture, a 1:10000 inoculum of each strain in Luria-Bertani media was prepared and aliquoted 100 μL in 4 columns of wells, except for the top row wells, which contained 200 μL of inoculum. […] The liquid in each of wells was mixed with a multi-channel pipet and 100 μL was transferred to the next well and mixed. The 2-fold dilution was continued down the 96-well plate until 100 μL was left, which was discarded. The plates were incubated at 37° C. with shaking for 16-18 hours. The MIC was determined as the lowest concentration that inhibited growth and had no turbidity by visual inspection.

[2] = target: T1, GyrBAfus:20-20 bp DNA complex (Staphylococcus aureus, UniProt P0A0K8+P20831); assay: 1H NMR binding study, titration; details: titrating 1:1 GyrBAfus:20-20 bp DNA into 50 μM compound
T1 construct: The C-terminal end of the B subunit was connected to the N-terminal end of the A subunit
T1 sequence (P0A0K8 410-543): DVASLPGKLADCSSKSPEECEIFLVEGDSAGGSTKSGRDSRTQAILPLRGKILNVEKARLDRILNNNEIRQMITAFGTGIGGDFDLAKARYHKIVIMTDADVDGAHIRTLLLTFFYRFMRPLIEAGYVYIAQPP
T1 sequence (P0A0K8 580-644): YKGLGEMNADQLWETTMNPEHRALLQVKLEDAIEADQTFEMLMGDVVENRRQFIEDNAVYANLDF
T1 sequence (P20831 2-491): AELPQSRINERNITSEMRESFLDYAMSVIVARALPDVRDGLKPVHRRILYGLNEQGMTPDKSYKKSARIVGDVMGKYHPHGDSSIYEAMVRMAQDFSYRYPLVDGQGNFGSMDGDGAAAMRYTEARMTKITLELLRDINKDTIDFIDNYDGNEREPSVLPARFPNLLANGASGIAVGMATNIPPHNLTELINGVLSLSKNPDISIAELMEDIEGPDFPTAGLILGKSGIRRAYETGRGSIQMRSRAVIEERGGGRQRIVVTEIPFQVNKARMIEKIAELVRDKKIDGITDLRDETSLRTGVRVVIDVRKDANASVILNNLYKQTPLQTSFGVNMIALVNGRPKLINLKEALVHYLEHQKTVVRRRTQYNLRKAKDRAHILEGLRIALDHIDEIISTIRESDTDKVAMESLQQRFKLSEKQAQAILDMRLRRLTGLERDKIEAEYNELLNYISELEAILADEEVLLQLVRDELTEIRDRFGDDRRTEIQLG

Vibrio cholera = assay: MIC, microdilution in 96-well plates; details: Vibrio cholerae
[3] = test system: E. coli BW25113 ΔtolC cipR isolate GyrB Ser464Phe; assay: MIC against ciprofloxacin-resistant mutant; details: Escherichia coli, BW25113
Description: as §2

E. coli DNA gyrase = E. coli DNA gyrase (Escherichia coli, UniProt P0AES4+P0AES6); assay: DNA gyrase gel shift assay; details: IC50 against E. coli DNA gyrase, WT Gyrase
Chain of E. coli DNA gyrase (P0AES4 whole entry, one chain of several): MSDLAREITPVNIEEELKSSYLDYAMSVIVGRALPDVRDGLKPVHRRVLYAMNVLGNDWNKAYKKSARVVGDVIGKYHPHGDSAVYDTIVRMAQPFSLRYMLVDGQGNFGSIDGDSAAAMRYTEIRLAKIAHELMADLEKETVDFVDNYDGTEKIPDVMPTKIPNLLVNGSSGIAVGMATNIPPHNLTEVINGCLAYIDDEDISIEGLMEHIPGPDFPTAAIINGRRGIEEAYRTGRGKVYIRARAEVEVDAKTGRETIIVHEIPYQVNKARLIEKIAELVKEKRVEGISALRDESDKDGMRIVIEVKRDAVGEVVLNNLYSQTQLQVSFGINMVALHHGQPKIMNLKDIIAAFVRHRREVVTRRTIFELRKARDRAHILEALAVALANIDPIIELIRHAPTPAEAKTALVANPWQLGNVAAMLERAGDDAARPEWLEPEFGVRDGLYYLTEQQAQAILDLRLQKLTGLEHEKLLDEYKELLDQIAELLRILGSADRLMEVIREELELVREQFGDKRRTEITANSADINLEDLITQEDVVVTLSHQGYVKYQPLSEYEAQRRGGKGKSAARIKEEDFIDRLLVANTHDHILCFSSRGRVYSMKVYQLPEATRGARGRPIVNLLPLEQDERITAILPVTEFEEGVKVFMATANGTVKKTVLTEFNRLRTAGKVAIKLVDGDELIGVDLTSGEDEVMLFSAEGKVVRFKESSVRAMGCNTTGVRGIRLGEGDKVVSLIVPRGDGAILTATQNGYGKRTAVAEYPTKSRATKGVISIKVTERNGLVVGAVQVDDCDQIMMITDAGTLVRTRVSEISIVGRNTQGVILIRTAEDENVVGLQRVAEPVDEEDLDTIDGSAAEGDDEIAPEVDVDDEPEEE

[4] = test system: E. coli BW25113 ΔtolC gyrR isolate GyrA Phe96Leu; assay: MIC against gyramide-resistant mutant; details: Escherichia coli, BW25113
Description: as §2

[5] = test system: E. coli BW25113 ΔtolC gyrR isolate GyrA Ser97Pro; assay: MIC against gyramide-resistant mutant; details: Escherichia coli, BW25113
Description: as §2

[6] = test system: gyramide A resistant mutants of E. coli; assay: MIC against gyramide A resistant mutants compared to parent strain; details: ratio to MIC of parent strain E. coli BW25113 ΔtolC
Description: as §2

Salmonella typhimurium = assay: MIC, microdilution in 96-well plates; details: Salmonella enterica
Streptococcus agalactiae = assay: MIC, 20-strain panel; format: cell-based; details: Table 7, separate set of experiments, read-out: MIC
Summary of the method: (§1)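 Broth microdilution per CLSI, 2-fold serial dilutions in Luria-Bertani medium with a 1:10000 inoculum from a growing subculture. Plates shaken at 37 °C for 16-18 h; MIC taken as lowest concentration showing no visible turbidity.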

[7] = test system: Staphylococcus aureus subsp. aureus; assay: MIC, 20-strain panel; format: cell-based; details: Staphylococcus aureus subsp. aureus, Table 7, separate set of experiments, read-out: MIC
Summary of the method: as §1

Shigella flexneri = assay: MIC, 20-strain panel; format: cell-based; details: Table 7, separate set of experiments
Summary of the method: as §1

Streptococcus pyogenes = assay: MIC, 20-strain panel; format: cell-based; details: Table 7, separate set of experiments, read-out: MIC
Summary of the method: as §1

Bacillus subtilis 168 = assay: MIC, 20-strain panel; format: cell-based; details: Table 7, separate set of experiments, read-out: MIC
Summary of the method: as §1

Enterococcus faecium = assay: MIC, 20-strain panel; format: cell-based; details: Table 7, separate set of experiments, read-out: MIC
Summary of the method: as §1

[8] = test system: Staphylococcus epidermidis; assay: MIC, 20-strain panel; format: cell-based; details: Table 7, separate set of experiments, read-out: MIC
Summary of the method: as §1

[9] = test system: Klebsiella pneumoniae subsp. pneumoniae; assay: MIC, 20-strain panel; format: cell-based; details: Klebsiella pneumoniae subsp. pneumoniae, Table 7, separate set of experiments, read-out: MIC
Summary of the method: as §1

[10] = test system: Staphylococcus saprophyticus subsp. saprophyticus; assay: MIC, 20-strain panel; format: cell-based; details: Staphylococcus saprophyticus subsp. saprophyticus, Table 7, separate set of experiments, read-out: MIC
Summary of the method: as §1

Bacillus cereus = assay: MIC, 20-strain panel; format: cell-based; details: Table 7, separate set of experiments, read-out: MIC
Summary of the method: as §1

[11] = test system: Morganella morganii subsp. morganii; assay: MIC, 20-strain panel; format: cell-based; details: Morganella morganii subsp. morganii; Table 7, separate set of experiments; read-out: MIC
Summary of the method: as §1

Enterococcus faecalis = assay: MIC, 20-strain panel; format: cell-based; details: Table 7, separate set of experiments
Summary of the method: as §1

E. coli JW5503 (deltolC) = assay: MIC, 20-strain panel; format: cell-based; details: Escherichia coli, E. coli JW5503 (deltolC); Table 7, separate set of experiments
Summary of the method: as §1

[12] = test system: Salmonella enterica subsp. enterica typhimurium; assay: MIC, 20-strain panel; format: cell-based; details: Salmonella enterica subsp. enterica typhimurium, Table 7, separate set of experiments
Summary of the method: as §1

E. coli MG1655 = assay: MIC, 20-strain panel; format: cell-based; details: Escherichia coli, MG1655, E. coli MG1655; Table 7, separate set of experiments; read-out: MIC
Summary of the method: as §1

[13] = test system: E. coli BW25113 ΔtolC cipR isolate GyrA Asp87Tyr; assay: MIC against ciprofloxacin-resistant mutant; details: Escherichia coli, BW25113
Description: as §2

Acinetobacter baumannii = assay: MIC, microdilution in 96-well plates; format: cell-based; details: read-out: MIC
Summary of the method: as §1

E. coli BW25113 = assay: MIC, microdilution in 96-well plates; format: cell-based; details: Escherichia coli, BW25113, E. coli BW25113, read-out: MIC
Summary of the method: as §1

[14] = test system: ciprofloxacin resistant strains of E. coli; assay: MIC against ciprofloxacin resistant strains compared to parent strain; details: ratio to MIC of parent strain E. coli BW25113 ΔtolC
Description: as §2

Klebsiella pneumonia = assay: MIC, microdilution in 96-well plates; details: Klebsiella pneumoniae
[15] = test system: E. coli BW25113 ΔtolC gyrR isolate GyrA Pro35Thr; assay: MIC against gyramide-resistant mutant; details: Escherichia coli, BW25113
Description: as §2

[16] = Table 7, separate set of experiments

How did the MIC [1] turn out when `N#Cc1cccc(S(=O)(=O)N[C@@H]2CCN(Cc3ccc(-c4ccccc4)cc3)C2)c1` [Gyramide C2, gyramide C2] was run?
Its MIC is 25.6 µM (≈ 10.7 µg/mL).

What about the “Kd for the association” value [2] of the same compound?
Its value is less than 50000 nM.

What about the MIC (Vibrio cholera; with PAβN (60 μM)) of the same compound?
The MIC was 40 µM (≈ 16.7 µg/mL).

What about the MIC (Vibrio cholera; without PAβN) of the same compound?
Its MIC is 160 µM (≈ 66.8 µg/mL).

What about the MIC [3] of the same compound?
Its MIC is 0.4 µM (≈ 0.167 µg/mL).

And the IC50 (E. coli DNA gyrase; Average of 3 trials)?
Its IC50 is 122 ± 39.2 nM.

What about the IC50 (E. coli DNA gyrase; Trial 1) of the same compound?
Its IC50 is 84.5 nM.

And the IC50 (E. coli DNA gyrase; Trial 2)?
The IC50 was 119 nM.

And the IC50 (E. coli DNA gyrase; Trial 3)?
The IC50 was 163 nM.

What about the MIC [4] of the same compound?
The MIC was 25.6 µM (≈ 10.7 µg/mL).

What about the MIC [5] of the same compound?
Its MIC is greater than 25.6 µM.

And the “MIC against gyramide A resistant mutants compared to the parent strain” value [6]?
Its value is greater than 200 times.

And the MIC (Salmonella typhimurium; with PAβN (60 μM))?
Its MIC is 2.5 µM (≈ 1.04 µg/mL).

And the MIC (Salmonella typhimurium; without PAβN)?
Its MIC is greater than 640 µM.

And the MIC (Streptococcus agalactiae)?
The MIC was greater than 16 µg/mL.

And the MIC [7]?
The MIC was greater than 16 µg/mL.

What about the MIC (Shigella flexneri) of the same compound?
Its MIC is 8 µg/mL (≈ 19.2 µM).

What about the MIC (Streptococcus pyogenes) of the same compound?
The MIC was greater than 16 µg/mL.

And the MIC (Bacillus subtilis 168)?
The MIC was greater than 16 µg/mL.

What about the MIC (Enterococcus faecium) of the same compound?
The MIC was greater than 16 µg/mL.

What about the MIC [8] of the same compound?
The MIC was greater than 16 µg/mL.

What about the MIC [9] of the same compound?
The MIC was greater than 16 µg/mL.

What about the MIC [10] of the same compound?
Its MIC is greater than 16 µg/mL.

What about the MIC (Bacillus cereus) of the same compound?
Its MIC is greater than 16 µg/mL.

What about the MIC [11] of the same compound?
Its MIC is greater than 16 µg/mL.

And the MIC (Enterococcus faecalis)?
The MIC was greater than 16 µg/mL.

And the MIC (E. coli JW5503 (deltolC))?
Its MIC is 0.015 µg/mL (≈ 0.0359 µM).

And the MIC [12]?
Its MIC is 2 µg/mL (≈ 4.79 µM).

What about the MIC (E. coli MG1655) of the same compound?
The MIC was 16 µg/mL (≈ 38.3 µM).

And the MIC [13]?
Its MIC is 0.8 µM (≈ 0.334 µg/mL).

What about the MIC (Acinetobacter baumannii; [16]) of the same compound?
The MIC was greater than 16 µg/mL.

What about the MIC (Acinetobacter baumannii; with PAβN (60 μM)) of the same compound?
Its MIC is 40 µM.

What about the MIC (Acinetobacter baumannii; without PAβN) of the same compound?
The MIC was greater than 640 µM.

And the MIC (E. coli BW25113; [16])?
Its MIC is 16 µg/mL.

What about the MIC (E. coli BW25113; without PAβN) of the same compound?
The MIC was 20 µM.

And the “MIC against ciprofloxacin resistant strains compared to the parent strain” value [14]?
The value was 4-8 times.

What about the MIC (Klebsiella pneumonia; with PAβN (60 μM)) of the same compound?
Its MIC is 20 µM (≈ 8.35 µg/mL).

And the MIC (Klebsiella pneumonia; without PAβN)?
Its MIC is greater than 640 µM.

What about the MIC [15] of the same compound?
The MIC was 25.6 µM (≈ 10.7 µg/mL).

From patent publication US10253039B2, “Inhibitors of bacterial DNA gyrase with efficacy against gram-negative bacteria” (priority 2014, dated 2019)
